These are literature values, as cited in patent publication US7615672B2, “Process for the preparation of n-heneicosane” (Defence Research & Development Organisation, priority 2005, dated 2009).

For this series, the system named is Aedes aegypti. Particulars: oviposition attractant pheromone.

SMILES strings stand for the structures.

In the case of `CCCCCCCCCCCCCCCCCCCCC` [n-heneicosane], the “concentration at which n-heneicosane attracts Aedes aegypti mosquitoes” value is reported as “less than 100 ppm”.
